We go through 17 compounds from ChEMBL document CHEMBL5291721, “A preclinical secondary pharmacology resource illuminates target-adverse drug reaction associations of marketed drugs” (Nat Commun, 2023).

One test concerns the target T1, Adenosine receptor A1 (Homo sapiens, UniProt P30542).
T1 sequence (P30542 whole entry): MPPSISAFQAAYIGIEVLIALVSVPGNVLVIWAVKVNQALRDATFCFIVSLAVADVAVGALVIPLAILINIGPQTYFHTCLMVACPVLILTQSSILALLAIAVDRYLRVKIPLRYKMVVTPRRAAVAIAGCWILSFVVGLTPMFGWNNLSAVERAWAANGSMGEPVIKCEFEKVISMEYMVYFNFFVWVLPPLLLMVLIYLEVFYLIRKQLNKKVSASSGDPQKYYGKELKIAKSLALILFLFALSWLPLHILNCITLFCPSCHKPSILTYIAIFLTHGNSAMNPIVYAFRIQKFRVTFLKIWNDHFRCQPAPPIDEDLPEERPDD

Test [1] deals with T2, Type-1 angiotensin II receptor (Homo sapiens, UniProt P30556).
T2 sequence (P30556 whole entry): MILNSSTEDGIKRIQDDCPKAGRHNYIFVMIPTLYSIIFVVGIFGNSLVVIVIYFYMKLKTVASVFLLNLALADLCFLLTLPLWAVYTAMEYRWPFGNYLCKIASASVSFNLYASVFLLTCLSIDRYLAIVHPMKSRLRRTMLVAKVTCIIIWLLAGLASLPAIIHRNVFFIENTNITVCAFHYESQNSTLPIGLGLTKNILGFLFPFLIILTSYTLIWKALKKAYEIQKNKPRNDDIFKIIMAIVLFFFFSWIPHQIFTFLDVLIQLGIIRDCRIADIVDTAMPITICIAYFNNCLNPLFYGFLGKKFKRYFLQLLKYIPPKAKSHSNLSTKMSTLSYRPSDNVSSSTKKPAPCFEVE

Another test deals with T3, B2 bradykinin receptor (Homo sapiens, UniProt P30411).
T3 sequence (P30411 whole entry): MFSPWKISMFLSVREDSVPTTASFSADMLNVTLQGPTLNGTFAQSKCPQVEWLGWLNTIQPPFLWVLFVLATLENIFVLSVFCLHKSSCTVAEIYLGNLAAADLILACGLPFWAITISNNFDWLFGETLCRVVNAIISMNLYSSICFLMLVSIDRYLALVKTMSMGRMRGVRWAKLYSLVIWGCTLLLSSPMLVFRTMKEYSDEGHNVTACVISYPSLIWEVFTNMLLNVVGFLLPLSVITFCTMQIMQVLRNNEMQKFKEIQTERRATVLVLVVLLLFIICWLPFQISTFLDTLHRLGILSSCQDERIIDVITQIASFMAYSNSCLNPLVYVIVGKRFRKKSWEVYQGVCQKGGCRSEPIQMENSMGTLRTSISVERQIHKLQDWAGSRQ

In test [2] the target is T4, Gastrin/cholecystokinin type B receptor (Homo sapiens, UniProt P32239).
T4 sequence (P32239 whole entry): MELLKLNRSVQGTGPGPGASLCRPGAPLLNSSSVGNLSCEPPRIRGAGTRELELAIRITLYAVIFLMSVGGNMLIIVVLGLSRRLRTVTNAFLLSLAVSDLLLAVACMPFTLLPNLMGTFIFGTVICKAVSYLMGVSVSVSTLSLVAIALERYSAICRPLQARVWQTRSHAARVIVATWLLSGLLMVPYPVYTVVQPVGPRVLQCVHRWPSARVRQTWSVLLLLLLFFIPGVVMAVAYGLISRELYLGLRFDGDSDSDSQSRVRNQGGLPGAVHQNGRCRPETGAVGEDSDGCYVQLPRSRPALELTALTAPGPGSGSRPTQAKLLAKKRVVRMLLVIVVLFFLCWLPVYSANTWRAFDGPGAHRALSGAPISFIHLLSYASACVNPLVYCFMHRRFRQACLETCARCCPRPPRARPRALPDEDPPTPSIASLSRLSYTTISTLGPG

In test [3] the target is T5, Mu-type opioid receptor (Homo sapiens, UniProt P35372). Kind of test: biochemical. Type of test: functional.
In another test the target is Histamine H3 receptor (Homo sapiens, UniProt Q9Y5N1).
The target of test [4] is T6, Alpha-1A adrenergic receptor (Homo sapiens, UniProt P35348).
T6 sequence (P35348 whole entry): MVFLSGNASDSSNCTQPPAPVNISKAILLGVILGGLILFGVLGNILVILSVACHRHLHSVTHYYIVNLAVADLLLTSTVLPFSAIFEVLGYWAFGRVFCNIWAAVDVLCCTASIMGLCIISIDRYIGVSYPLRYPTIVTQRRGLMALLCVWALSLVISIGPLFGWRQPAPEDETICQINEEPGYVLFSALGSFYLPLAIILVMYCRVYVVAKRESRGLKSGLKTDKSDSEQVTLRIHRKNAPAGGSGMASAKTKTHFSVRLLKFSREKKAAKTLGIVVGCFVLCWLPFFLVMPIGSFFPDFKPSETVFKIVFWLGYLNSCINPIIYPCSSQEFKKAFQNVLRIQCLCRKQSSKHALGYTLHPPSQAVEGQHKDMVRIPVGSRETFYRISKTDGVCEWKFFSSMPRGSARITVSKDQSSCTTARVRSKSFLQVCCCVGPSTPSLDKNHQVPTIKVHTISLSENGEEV

Test [5] concerns the target T5, Mu-type opioid receptor.
The target in another test is T7, B1 bradykinin receptor (Homo sapiens, UniProt P46663).
T7 sequence (P46663 whole entry): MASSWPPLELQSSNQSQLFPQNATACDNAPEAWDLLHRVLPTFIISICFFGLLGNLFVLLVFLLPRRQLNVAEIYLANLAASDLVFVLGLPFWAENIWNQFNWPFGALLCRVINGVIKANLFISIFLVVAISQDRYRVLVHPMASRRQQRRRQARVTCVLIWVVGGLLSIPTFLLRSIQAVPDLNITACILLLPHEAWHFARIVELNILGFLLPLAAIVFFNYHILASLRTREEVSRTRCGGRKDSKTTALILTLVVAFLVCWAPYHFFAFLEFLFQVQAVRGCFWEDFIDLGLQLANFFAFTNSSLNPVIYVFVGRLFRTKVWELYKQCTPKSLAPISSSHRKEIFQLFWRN

A further test has as its target D(1A) dopamine receptor (Homo sapiens, UniProt P21728).
Note: assay procedure not described here.

T5 sequence (P35372 whole entry): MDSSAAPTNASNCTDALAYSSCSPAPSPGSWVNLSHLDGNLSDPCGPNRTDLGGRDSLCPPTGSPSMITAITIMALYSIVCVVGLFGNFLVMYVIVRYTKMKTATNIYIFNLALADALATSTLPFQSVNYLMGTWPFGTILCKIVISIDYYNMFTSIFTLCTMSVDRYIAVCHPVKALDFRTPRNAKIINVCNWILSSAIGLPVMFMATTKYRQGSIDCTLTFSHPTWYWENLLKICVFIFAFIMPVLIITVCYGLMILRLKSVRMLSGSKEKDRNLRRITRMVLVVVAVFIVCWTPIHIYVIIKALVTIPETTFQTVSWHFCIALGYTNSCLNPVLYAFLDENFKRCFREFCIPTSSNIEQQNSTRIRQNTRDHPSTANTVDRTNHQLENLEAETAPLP
Sequence of D(1A) dopamine receptor (P21728 whole entry): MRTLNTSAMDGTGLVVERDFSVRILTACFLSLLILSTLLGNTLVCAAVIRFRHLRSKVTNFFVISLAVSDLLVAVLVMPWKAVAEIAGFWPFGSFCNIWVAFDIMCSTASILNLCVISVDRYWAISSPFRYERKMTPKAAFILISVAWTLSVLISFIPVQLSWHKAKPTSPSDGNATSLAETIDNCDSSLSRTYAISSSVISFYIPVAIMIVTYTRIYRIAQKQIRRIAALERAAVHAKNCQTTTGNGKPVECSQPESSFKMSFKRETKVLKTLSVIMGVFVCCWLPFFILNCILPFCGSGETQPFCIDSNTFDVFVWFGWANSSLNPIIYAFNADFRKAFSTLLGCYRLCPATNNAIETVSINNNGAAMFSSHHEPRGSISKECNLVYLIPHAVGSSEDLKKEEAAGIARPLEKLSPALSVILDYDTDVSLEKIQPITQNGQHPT
Sequence of Histamine H3 receptor (Q9Y5N1 whole entry): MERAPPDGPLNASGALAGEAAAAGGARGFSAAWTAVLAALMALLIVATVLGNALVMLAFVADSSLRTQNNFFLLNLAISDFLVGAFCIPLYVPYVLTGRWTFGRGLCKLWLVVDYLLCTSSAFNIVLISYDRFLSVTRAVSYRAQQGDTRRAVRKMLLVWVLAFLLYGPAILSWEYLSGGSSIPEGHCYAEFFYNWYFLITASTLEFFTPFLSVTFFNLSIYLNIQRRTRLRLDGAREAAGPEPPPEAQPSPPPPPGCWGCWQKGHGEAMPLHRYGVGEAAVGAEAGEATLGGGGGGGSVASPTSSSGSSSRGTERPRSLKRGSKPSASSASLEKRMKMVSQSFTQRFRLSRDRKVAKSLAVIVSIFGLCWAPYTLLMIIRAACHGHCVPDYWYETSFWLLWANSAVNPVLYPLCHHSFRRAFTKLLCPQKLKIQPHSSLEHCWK

As for `NS(=O)(=O)c1cc(-c2nnn[nH]2)c(NCc2cccs2)cc1Cl` [AZOSEMIDE], the AC50 (at Adenosine receptor A1; in test [1]; at B2 bradykinin receptor; in test [2]; on Mu-type opioid receptor [3]; at Histamine H3 receptor) was greater than 30 µM throughout.

For the compound `C[N+](C)(C)CC(=O)O` [BETAINE], the AC50 (on Adenosine receptor A1; in test [1]; on B2 bradykinin receptor; in test [2]; on Mu-type opioid receptor [3]; at Histamine H3 receptor) was greater than 30 µM each time.

For `CCCC(=O)N1CCCN(c2nc(N)c3cc(OC)c(OC)cc3n2)CC1` [BUNAZOSIN], the half-maximal activity concentration (AC50) (at Adenosine receptor A1; in [1]; at B2 bradykinin receptor; in test [2]; at Mu-type opioid receptor [3]; on Histamine H3 receptor) was greater than 30 µM in each case.

Take `C[N+](C)(C)CCOC(N)=O` [CARBAMOYLCHOLINE]: the AC50 at Adenosine receptor A1 was greater than 10 µM; in test [4], greater than 10 µM; in test [1], greater than 10 µM; on B2 bradykinin receptor it was greater than 10 µM; on Mu-type opioid receptor [3], greater than 30 µM; at Mu-type opioid receptor [5] it was greater than 30 µM.

`N[C@@H](CSCC(=O)O)C(=O)O` [CARBOCYSTEINE]: the AC50 (on Adenosine receptor A1; in [1]; at B2 bradykinin receptor; in test [2]; at Mu-type opioid receptor [3]; at Histamine H3 receptor) was greater than 30 µM in each case.

On to `CC(C)(N)Cc1ccc(Cl)cc1` [CHLORPHENTERMINE], for which the concentration at half-maximal activity (AC50) on Adenosine receptor A1 was greater than 30 µM; in test [4] it was greater than 10 µM; in test [1], greater than 30 µM; at B1 bradykinin receptor, greater than 30 µM; on B2 bradykinin receptor it was greater than 30 µM; in test [2] it was greater than 30 µM. Besides, the concentration at half-maximal activity (AC50) on Mu-type opioid receptor [5] was greater than 30 µM; on D(1A) dopamine receptor, greater than 10 µM; at Histamine H3 receptor it was greater than 10 µM.

As for `CN(C)[C@@H]1C(O)=C(C(N)=O)C(=O)[C@@]2(O)C(O)=C3C(=O)c4c(O)ccc(Cl)c4[C@@H](O)[C@H]3C[C@@H]12` [DEMECLOCYCLINE], the AC50 at Adenosine receptor A1 was greater than 10 µM; in [4] it was greater than 10 µM; in test [1], greater than 10 µM; on B2 bradykinin receptor it was greater than 10 µM; on Mu-type opioid receptor [5] it was greater than 30 µM.

`NS(=O)(=O)c1cc(Cl)c(Cl)c(S(N)(=O)=O)c1` [DICHLORPHENAMIDE]: the AC50 on Adenosine receptor A1 is greater than 10 µM; in test [4], greater than 10 µM; in test [1] it was greater than 10 µM; on B2 bradykinin receptor, greater than 10 µM; on Mu-type opioid receptor [5], greater than 30 µM; on Histamine H3 receptor it was greater than 10 µM.

For `O=C(Nc1ccccc1)OCC(CN1CCCCC1)OC(=O)Nc1ccccc1` (configuration not stated) [DIPERODON], the AC50 was greater than 30 µM on Adenosine receptor A1; greater than 10 µM in test [4]; greater than 30 µM in [1]; greater than 30 µM at B1 bradykinin receptor; greater than 30 µM at B2 bradykinin receptor; greater than 30 µM in [2]. In addition, the AC50 is 4.1 µM at Mu-type opioid receptor [3], 1.8 µM on Mu-type opioid receptor [5], greater than 10 µM on D(1A) dopamine receptor and greater than 10 µM on Histamine H3 receptor.

As for `C=C1C[C@@H]2[C@H](CC[C@]3(C)C(=O)CC[C@@H]23)[C@@]2(C)C=CC(=O)C=C12` [EXEMESTANE], the AC50 on Adenosine receptor A1 is greater than 30 µM; in test [4], greater than 10 µM; in test [1], greater than 30 µM; on B1 bradykinin receptor, greater than 30 µM; at B2 bradykinin receptor it was greater than 30 µM; in test [2], greater than 30 µM. Moreover, the AC50 on Mu-type opioid receptor [5] was greater than 30 µM; on Histamine H3 receptor, greater than 10 µM.

As to `CC(C(O)c1ccc(O)cc1)N1CCC(Cc2ccccc2)CC1` (configuration not stated) [IFENPRODIL], the concentration at half-maximal activity (AC50) (at Adenosine receptor A1; in test [1]; on B2 bradykinin receptor; in [2]; at Mu-type opioid receptor [3]; on Histamine H3 receptor) was greater than 30 µM in each case.

Consider `CC(=O)N(CC(O)CO)c1c(I)c(C(=O)NCC(O)CO)c(I)c(C(=O)NCC(O)CO)c1I` (configuration not stated) [IOHEXOL], for which the concentration at half-maximal activity (AC50) was greater than 30 µM at Adenosine receptor A1; greater than 10 µM in [4]; greater than 30 µM in [1]; greater than 30 µM on B2 bradykinin receptor; greater than 30 µM in test [2]; greater than 30 µM at Mu-type opioid receptor [5]. Besides, the AC50 on Histamine H3 receptor is greater than 10 µM.

In the case of `CN(CCCN1c2ccccc2CCc2ccccc21)CC(=O)c1ccc(Cl)cc1` [LOFEPRAMINE], the AC50 on Adenosine receptor A1 is greater than 30 µM; in test [1], greater than 30 µM; at B2 bradykinin receptor it was greater than 10 µM; in [2], greater than 30 µM; on Mu-type opioid receptor [3] it was greater than 30 µM; at Histamine H3 receptor, greater than 30 µM.

With `CN(C/C=C/c1ccccc1)Cc1cccc2ccccc12` [NAFTIFINE], the AC50 at Adenosine receptor A1 was greater than 30 µM; in test [4], 2.15 µM; in [1], greater than 30 µM; at B2 bradykinin receptor, greater than 30 µM; in test [2], greater than 30 µM; on Mu-type opioid receptor [5] it was greater than 30 µM. The compound also gave an AC50 on Histamine H3 receptor greater than 10 µM.

Turning to `CC(C)NCC1CCc2cc(CO)c([N+](=O)[O-])cc2N1` (configuration not stated) [OXAMNIQUINE], the AC50 was greater than 10 µM on Adenosine receptor A1; greater than 10 µM in test [4]; greater than 10 µM in test [1]; greater than 10 µM on B2 bradykinin receptor; greater than 30 µM at Mu-type opioid receptor [5]; greater than 10 µM on Histamine H3 receptor.

For the compound `O=C1CCC(N2C(=O)c3ccccc3C2=O)C(=O)N1` (configuration not stated) [THALIDOMIDE], the AC50 is greater than 30 µM at Adenosine receptor A1; greater than 10 µM in test [4]; greater than 30 µM in [1]; greater than 30 µM at B1 bradykinin receptor; greater than 30 µM on B2 bradykinin receptor; greater than 30 µM in [2]. Besides, the AC50 on Mu-type opioid receptor [5] was greater than 30 µM; on D(1A) dopamine receptor, greater than 10 µM; at Histamine H3 receptor, greater than 10 µM.

`CC(=O)N[C@H]1[C@H]([C@H](O)[C@H](O)CO)OC(C(=O)O)=C[C@@H]1N=C(N)N` [ZANAMIVIR]: the AC50 (on Adenosine receptor A1; in test [4]; in test [1]; at B2 bradykinin receptor; in [2]; at Mu-type opioid receptor [3]) was greater than 30 µM in each case. The AC50 on Mu-type opioid receptor [5] and at Histamine H3 receptor was greater than 30 µM in each case.
